Assay results as given in paper PMC8318001, “Terpene Synthase-b and Terpene Synthase-e/f Genes Produce Monoterpenes for Phalaenopsis bellina Floral Scent” (Frontiers in Plant Science, 2021).

Key:
Assay in all cases: GC-MS of reaction products
Format in all cases: biochemical
Conditions in all cases: 2.5 uM GDP, HEPES pH 7.4, 0.1 M KCl, 10 mM MgCl2, 10 mM DTT, 10% glycerol, 30 °C, 1 h
PbTPS9 = target: T1, PbTPS9 (Phalaenopsis bellina, UniProt A0A8F9U9F3)
T1 construct: gene TPS9; ORF in pET-28b, His-tag at N- and C-termini, E. coli C41 (DE3) pLysS, TALON purified; tag removal not mentioned
T1 sequence (A0A8F9U9F3 1-598 limits assumed): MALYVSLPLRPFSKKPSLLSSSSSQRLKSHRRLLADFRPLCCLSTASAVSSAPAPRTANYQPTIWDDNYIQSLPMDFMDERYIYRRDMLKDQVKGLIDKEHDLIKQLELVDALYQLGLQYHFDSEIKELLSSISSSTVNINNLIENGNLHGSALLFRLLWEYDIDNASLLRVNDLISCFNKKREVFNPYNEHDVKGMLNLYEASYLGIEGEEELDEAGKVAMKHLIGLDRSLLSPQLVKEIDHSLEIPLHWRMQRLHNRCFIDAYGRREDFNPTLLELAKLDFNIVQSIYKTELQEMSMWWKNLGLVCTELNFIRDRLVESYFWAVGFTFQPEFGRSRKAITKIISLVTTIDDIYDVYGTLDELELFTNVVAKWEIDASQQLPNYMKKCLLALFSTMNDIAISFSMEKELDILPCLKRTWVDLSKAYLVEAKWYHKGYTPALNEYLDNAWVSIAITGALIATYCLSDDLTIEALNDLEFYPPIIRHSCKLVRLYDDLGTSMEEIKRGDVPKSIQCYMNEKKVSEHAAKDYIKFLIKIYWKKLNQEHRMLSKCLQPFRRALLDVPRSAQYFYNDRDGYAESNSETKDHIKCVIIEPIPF

PbTPS4 = target: T2, PbTPS4 (Phalaenopsis bellina, UniProt A0A8F9U8Q1)
T2 construct: gene TPS4; ORF in pET-28b, His-tag at N- and C-termini, E. coli C41 (DE3) pLysS, TALON purified; tag removal not mentioned
T2 sequence (A0A8F9U8Q1 1-868): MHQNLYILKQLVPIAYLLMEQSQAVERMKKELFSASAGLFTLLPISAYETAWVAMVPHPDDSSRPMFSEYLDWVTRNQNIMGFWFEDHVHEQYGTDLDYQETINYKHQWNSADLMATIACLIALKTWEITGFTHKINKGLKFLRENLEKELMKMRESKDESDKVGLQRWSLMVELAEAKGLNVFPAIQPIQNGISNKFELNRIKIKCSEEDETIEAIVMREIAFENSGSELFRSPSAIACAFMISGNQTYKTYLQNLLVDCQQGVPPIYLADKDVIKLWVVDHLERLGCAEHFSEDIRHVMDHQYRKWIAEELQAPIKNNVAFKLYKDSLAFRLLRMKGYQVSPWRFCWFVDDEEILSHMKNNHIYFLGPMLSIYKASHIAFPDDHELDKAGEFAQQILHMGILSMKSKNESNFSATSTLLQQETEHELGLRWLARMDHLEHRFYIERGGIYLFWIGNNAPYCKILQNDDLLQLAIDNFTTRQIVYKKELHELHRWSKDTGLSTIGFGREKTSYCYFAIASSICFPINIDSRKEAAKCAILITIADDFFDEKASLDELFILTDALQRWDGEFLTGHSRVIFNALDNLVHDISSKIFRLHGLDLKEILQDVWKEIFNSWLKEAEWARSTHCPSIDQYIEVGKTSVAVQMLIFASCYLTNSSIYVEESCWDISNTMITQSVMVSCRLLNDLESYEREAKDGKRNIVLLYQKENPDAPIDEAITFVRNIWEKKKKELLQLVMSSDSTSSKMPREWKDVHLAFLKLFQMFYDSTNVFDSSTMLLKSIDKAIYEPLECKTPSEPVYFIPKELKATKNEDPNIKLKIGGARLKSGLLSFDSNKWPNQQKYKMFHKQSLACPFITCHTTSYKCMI

PbTPS5 = target: T3, PbTPS5 (Phalaenopsis bellina, UniProt A0A8F9UAD9)
T3 construct: gene TPS5; tag removal not mentioned
T3 sequence (A0A8F9UAD9 1-605 limits assumed): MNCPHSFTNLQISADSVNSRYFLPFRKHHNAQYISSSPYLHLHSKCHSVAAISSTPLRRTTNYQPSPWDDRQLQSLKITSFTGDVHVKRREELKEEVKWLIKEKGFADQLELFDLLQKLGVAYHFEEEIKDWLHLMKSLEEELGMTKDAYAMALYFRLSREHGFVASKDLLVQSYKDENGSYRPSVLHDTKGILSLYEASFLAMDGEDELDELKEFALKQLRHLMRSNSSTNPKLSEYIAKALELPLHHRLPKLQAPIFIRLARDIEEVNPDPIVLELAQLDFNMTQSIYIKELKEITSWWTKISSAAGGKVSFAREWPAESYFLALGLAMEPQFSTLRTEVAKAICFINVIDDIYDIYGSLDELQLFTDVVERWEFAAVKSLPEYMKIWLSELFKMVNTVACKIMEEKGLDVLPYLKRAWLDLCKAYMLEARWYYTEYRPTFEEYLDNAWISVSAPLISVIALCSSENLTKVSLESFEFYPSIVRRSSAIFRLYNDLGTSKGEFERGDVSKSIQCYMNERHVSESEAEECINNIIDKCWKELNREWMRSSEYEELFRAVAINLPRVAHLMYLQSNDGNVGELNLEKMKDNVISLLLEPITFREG

PbTPS3 = target: T4, PbTPS3 (Phalaenopsis bellina, UniProt A0A8F9U8Q4)
T4 construct: gene TPS3; ORF in pET-28b, His-tag at N- and C-termini, E. coli C41 (DE3) pLysS, TALON purified; tag removal not mentioned
T4 sequence (A0A8F9U8Q4 1-769): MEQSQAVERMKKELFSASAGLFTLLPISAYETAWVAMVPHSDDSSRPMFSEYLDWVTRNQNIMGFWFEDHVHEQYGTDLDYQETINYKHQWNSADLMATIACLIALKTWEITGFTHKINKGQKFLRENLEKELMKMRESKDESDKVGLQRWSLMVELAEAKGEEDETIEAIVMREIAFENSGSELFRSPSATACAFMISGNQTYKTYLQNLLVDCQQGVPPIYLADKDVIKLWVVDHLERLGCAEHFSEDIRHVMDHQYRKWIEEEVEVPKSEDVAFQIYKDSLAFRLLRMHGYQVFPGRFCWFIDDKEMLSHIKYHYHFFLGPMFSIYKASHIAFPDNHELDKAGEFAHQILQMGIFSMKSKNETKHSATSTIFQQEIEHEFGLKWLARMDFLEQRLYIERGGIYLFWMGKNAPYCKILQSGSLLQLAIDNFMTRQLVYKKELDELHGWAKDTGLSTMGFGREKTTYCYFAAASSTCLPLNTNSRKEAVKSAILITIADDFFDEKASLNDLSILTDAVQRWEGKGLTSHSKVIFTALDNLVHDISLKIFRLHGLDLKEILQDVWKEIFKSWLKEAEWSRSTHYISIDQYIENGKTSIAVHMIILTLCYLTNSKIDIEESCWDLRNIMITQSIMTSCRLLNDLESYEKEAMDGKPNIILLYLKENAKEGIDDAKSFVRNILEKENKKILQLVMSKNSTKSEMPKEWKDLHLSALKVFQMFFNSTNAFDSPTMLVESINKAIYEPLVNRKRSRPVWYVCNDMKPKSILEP

For `CC(C)=CCC/C(C)=C/COP(=O)(O)OP(=O)(O)O` [GDP], the “GC-MS of reaction products” value (PbTPS9) was “The product of PbTPS9 was geraniol (Figure 5B)”, the “GC-MS of reaction products” value (PbTPS4) was “PbTPS4 was a linalool synthase and used GDP as the substrate (Figure 6B)” and the “GC-MS of reaction products” value (PbTPS5) was “Geraniol was detected as the main product catalyzed by PbTPS5 (Figure 5A)”. The “GC-MS of reaction products” value (PbTPS3) was “PbTPS3 was a dual enzyme as a linalool/(β)-cis-ocimene synthase (Figure 6A)”.
